Reference: patent US8431597B2, “Benzimidazole derivatives” (Pfizer Inc., priority 2007, dated 2013)
Counter-ions that a name gives are not always drawn.

What follows are compounds tested against T1, Smoothened (SMO) (Mus musculus, UniProt P56726) (assay: Smoothened (SMO)/Sonic Hedgehog (SHh) Transient Transcriptional Activation Assay (Gli-luciferase reporter in C3H10T1/2 cells)). Conditions: C3H 10T1/2, 2 μM compound; transfected C3H10T1/2 cells, recombinant human SHh 250 ng/mL, 20 hours, luciferase readout; read-out: SMO CELL % INHIBITION @ 2 μM.
T1 construct: C3H10T1/2 cells (ATCC #CCL-226) were split and seeded; endogenous in cells; host or cells: C3H10T1/2 (ATCC #CCL-226)
T1 sequence (P56726 33-793): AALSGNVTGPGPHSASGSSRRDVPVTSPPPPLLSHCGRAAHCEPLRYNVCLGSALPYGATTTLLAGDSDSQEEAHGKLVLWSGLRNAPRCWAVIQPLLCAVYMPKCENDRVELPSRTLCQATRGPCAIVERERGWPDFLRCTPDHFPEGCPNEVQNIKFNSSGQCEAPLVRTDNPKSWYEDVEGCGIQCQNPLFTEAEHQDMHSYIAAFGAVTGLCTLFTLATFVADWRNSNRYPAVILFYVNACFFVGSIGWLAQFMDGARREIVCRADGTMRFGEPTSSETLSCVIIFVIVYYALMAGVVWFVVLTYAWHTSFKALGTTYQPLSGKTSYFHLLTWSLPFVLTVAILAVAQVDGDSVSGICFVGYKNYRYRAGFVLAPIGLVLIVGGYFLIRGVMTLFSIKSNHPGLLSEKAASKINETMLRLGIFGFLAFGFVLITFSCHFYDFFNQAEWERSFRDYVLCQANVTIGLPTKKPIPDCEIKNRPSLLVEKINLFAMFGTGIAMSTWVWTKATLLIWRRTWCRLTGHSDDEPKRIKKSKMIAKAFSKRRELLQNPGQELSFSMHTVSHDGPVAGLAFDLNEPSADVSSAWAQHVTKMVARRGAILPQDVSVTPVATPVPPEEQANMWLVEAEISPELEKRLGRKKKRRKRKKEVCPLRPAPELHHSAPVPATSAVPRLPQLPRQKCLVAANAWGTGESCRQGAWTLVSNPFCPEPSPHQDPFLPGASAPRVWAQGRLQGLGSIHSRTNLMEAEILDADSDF
Type: cell-based, murine
Procedure: As noted above, the compounds of the invention are useful as inhibitors of SMO. • Methods for determining the in vitro activity of these compounds are described below: Smoothened (SMO)/Sonic Hedgehog (SHh) Transient Transcriptional Activation Assay
On Day 1, 2×10^6 C3H10T1/2 cells (ATCC #CCL-226) were split and seeded in 12 mL of growth medium Basal Medium Eagle (BME, Invitrogen #21010-046) supplemented with 2 mM L-glutamine (Invitrogen #25030-081), 0.1 units/mL penicillin and 0.1 μg/mL streptomycin (Invitrogen #15140-122), and 10% Fetal Bovine Serum (FBS, Invitrogen #16140-071) in a T-75 flask (Costar #3376). They were allowed to attach for 4 hours at 37° C., 5% CO2. The cells were then transfected using Fugene 6 (Roch #11 814 443 001) in the following reaction: 48 μL Fugene 6 and 745 μL Opti-MEM (Invitrogen #31985-070) were mixed and allowed to sit at room temperature for 5 minutes. 8 μg of pGL4.14/mGli(CS) DNA (10× murine Gli response elements and minimal CS promoter) and 0.5 μg of pEGFP DNA (Clontech) were added, gently mixed and incubated at room temperature for 20 minutes. This entire transfection mix was then added to the T-75 flask containing the cells. The cells were incubated at 37° C., 5% CO2 for 18-24 hours.
On Day 2, the transfected cells were trypsinized and seeded into white 96 well plates (Costar #3917) in 100 μL/well of growth medium at a concentration of 20,000 cells/well. The cells were allowed to recover for 4 hours before adding serum starvation medium Dulbecco's Modified Eagle Medium (DMEM, Invitrogen #21063-029) supplemented with 2 mM L-glutamine, 0.1 units/mL penicillin and 0.1 μg/mL streptomycin, and 0.5% Calf Serum (CS, Invitrogen #26170-043). The growth media was aspirated off, and the cells were rinsed with 100 μL of starvation media. 95 μL of starvation media was then added to each well. The cells were incubated for 20 hours at 37° C., 5% CO2.
On Day 3, cells were dosed with test compounds at a final concentration ranging from 2 μM to 2 nM. Immediately after dosing cells with compounds, recombinant human sonic hedgehog (SHh, R&D Systems #1845-SH) was add to a final concentration of 250 ng/mL. A 25 μg vial of SHh was reconstituted with 250 μL PBS/0.1% BSA to give a 100 ng/μL working stock. This working stock was then diluted 1:20 in starvation media. The transfected cells were incubated with compounds and SHh for 20 hours at 37° C., 5% CO2.
Luciferase assays were conducted on Day 4 using Dual-Glo Luciferase assay system (Promega #E2940) according to Promega's protocol. Briefly, Dual-Glo luciferase reagent was made up and 100 μL were added to each well of the 96 well plate containing media. Plates were shaken at room temperature for 10 minutes, and then read on TopCount (Perkin-Elmer). The luminescence was recorded.

Point of comparison: CN1CC[C@@H](NC(=O)Nc2cccnc2)C[C@@H]1c1nc2ccccc2[nH]1 [Example 80, 1-[(2R,4R)-2-(1H-benzimidazol-2-yl)-1-methylpiperidin-4-yl]-3-pyridin-3-ylurea hydrochloride], inhibition at 2 µM 98%. Against it:
- CN(C)c1ccc(NC(=O)N[C@@H]2CCN(C)[C@@H](c3nc4ccccc4[nH]3)C2)cc1 [Example 56, 1-[(2R,4R)-2-(1H-benzimidazol-2-yl)-1-methylpiperidin-4-yl]-3-[4-(dimethylamino)phenyl]urea hydrochloride] — higher, 104%
- CN1CC[C@@H](NC(=O)c2ccc3c(c2)OCCO3)C[C@@H]1c1nc2cc(F)c(F)cc2[nH]1 [Example 57, N-[(2R,4R)-2-(5,6-difluoro-1H-benzimidazol-2-yl)-1-methylpiperidin-4-yl]-2,3-dihydro-1,4-benzodioxine-6-carboxamide hydrochloride] — higher, 104%
- CN1C[C@@H](NC(=O)Nc2ccc(Cl)c(C(F)(F)F)c2)C[C@H]1c1nc2ccc(F)cc2[nH]1 [Example 58, 1-[4-chloro-3-(trifluoromethyl)phenyl]-3-[(3S,5S)-5-(6-fluoro-1H-benzimidazol-2-yl)-1-methylpyrrolidin-3-yl]urea] — higher, 104%
- CC(C)CCN1CC[C@@H](NC(=O)Nc2ccc(C#N)cc2)C[C@@H]1c1nc2ccccc2[nH]1 [Example 60, 1-[(2R,4R)-2-(1H-benzimidazol-2-yl)-1-(3-methylbutyl)piperidin-4-yl]-3-(4-cyanophenyl)urea] — higher, 104%
- N#Cc1ccc(NC(=O)N[C@@H]2CCN(Cc3ccccc3)[C@@H](c3nc4ccccc4[nH]3)C2)cc1 [Example 61, 1-[(2R,4R)-2-(1H-benzimidazol-2-yl)-1-benzylpiperidin-4-yl]-3-(4-cyanophenyl)urea] — higher, 99.5%
- COc1ccc2[nH]c([C@H]3C[C@H](NC(=O)Nc4ccc(C(F)(F)F)nc4)CCN3C)nc2c1 [Example 62, 1-[(2R,4R)-2-(5-methoxy-1H-benzimidazol-2-yl)-1-methylpiperidin-4-yl]-3-[6-(trifluoromethyl)pyridin-3-yl]urea hydrochloride] — higher, 104%
- CN1CC[C@@H](NC(=O)c2ccc3c(c2)OCCO3)C[C@@H]1c1nc2ccc(C#N)cc2[nH]1 [Example 63, N-[(2R,4R)-2-(6-cyano-1H-benzimidazol-2-yl)-1-methylpiperidin-4-yl]-2,3-dihydro-1,4-benzodioxine-6-carboxamide hydrochloride] — higher, 104%
- CN1CC[C@@H](NC(=O)Nc2ccc(C#N)cc2)C[C@@H]1c1nc2cc(Cl)ccc2[nH]1 [Example 64, 1-[(2R,4R)-2-(5-chloro-1H-benzimidazol-2-yl)-1-methylpiperidin-4-yl]-3-(4-cyanophenyl)urea hydrochloride] — higher, 103%
- Cc1ccc2[nH]c([C@H]3C[C@H](NC(=O)Nc4ccc(C(F)(F)F)nc4)CCN3C)nc2c1 [Example 65, 1-[(2R,4R)-1-methyl-2-(5-methyl-1H-benzimidazol-2-yl)piperidin-4-yl]-3-[6-(trifluoromethyl)pyridin-3-yl]urea hydrochloride] — higher, 103%
- CN1CC[C@@H](NC(=O)Nc2ccc(C(F)(F)F)nc2)C[C@@H]1c1nc2ccccc2[nH]1 [Example 66, 1-[(2R,4R)-2-(1H-benzimidazol-2-yl)-1-methylpiperidin-4-y1]-3-[6-(trifluoromethyl)pyridin-3-yl]urea hydrochloride] — higher, 103%
- CN1CC[C@@H](NC(=O)Nc2ccc3c(c2)OCCO3)C[C@@H]1c1nc2ccccc2[nH]1 [Example 67, 1-[(2R,4R)-2-(1H-benzimidazol-2-yl)-1-methylpiperidin-4-yl]-3-(2,3-dihydro-1,4-benzodioxin-6-yl)urea hydrochloride] — higher, 103%
- CN1CC[C@@H](NC(=O)c2ccc(C(=O)C(F)(F)F)cc2)C[C@@H]1c1nc2ccccc2[nH]1 [Example 68, N-[(2R,4R)-2-(1H-benzimidazol-2-yl)-1-methylpiperidin-4-yl]-4-(trifluoroacetyl)benzamide] — higher, 102%
- Cc1cncc(NC(=O)N[C@@H]2CCN(C)[C@@H](c3nc4ccccc4[nH]3)C2)c1 [Example 69, 1-[(2R,4R)-2-(1H-benzimidazol-2-yl)-1-methylpiperidin-4-yl]-3-(5-methylpyridin-3-yl)urea hydrochloride] — higher, 102%
- N#Cc1ccc(NC(=O)N[C@@H]2CCN(C3CCC3)[C@@H](c3nc4ccccc4[nH]3)C2)cc1 [Example 70, 1-[(2R,4R)-2-(1H-benzimidazol-2-yl)-1-cyclobutyl-piperidin-4-yl]-3-(4-cyanophenyl)urea] — higher, 101%
- Cc1cc(NC(=O)N[C@@H]2CCN(C)[C@@H](c3nc4ccccc4[nH]3)C2)cnc1C [Example 71, 1-[(2R,4R)-2-(1H-benzimidazol-2-yl)-1-methylpiperidin-4-yl]-3-(5,6-dimethylpyridin-3-yl)urea hydrochloride] — higher, 101%
- CN1CC[C@@H](NC(=O)c2ccc(N=[N+]=[N-])cc2)C[C@@H]1c1nc2ccccc2[nH]1 [Example 72, 4-azido-N-[(2R,4R)-2-(1H-benzimidazol-2-yl)-1-methylpiperidin-4-yl]benzamide] — higher, 101%
- CN1CC[C@@H](NC(=O)Nc2ccc(C(F)(F)F)nc2)C[C@@H]1c1nc2ccc(Cl)cc2[nH]1 [Example 73, 1-[(2R,4R)-2-(6-chloro-1H-benzimidazol-2-yl)-1-methylpiperidin-4-yl]-3-[6-(trifluoromethyl)pyridin-3-yl]urea hydrochloride] — higher, 101%
- CN1CC[C@@H](NC(=O)c2cc(-c3ccncc3)n[nH]2)C[C@@H]1c1nc2ccccc2[nH]1 [Example 74, N-[(2R,4R)-2-(1H-benzimidazol-2-yl)-1-methylpiperidin-4-yl]-3-pyridin-4-yl-1H-pyrazole-5-carboxamide hydrochloride] — higher, 101%
- CN1CC[C@@H](NC(=O)Nc2ccccc2)C[C@@H]1c1nc2ccccc2[nH]1 [Example 75, 1-[(2R,4R)-2-(1H-benzimidazol-2-yl)-1-methylpiperidin-4-yl]-3-phenylurea hydrochloride] — higher, 100%
- CN1CC[C@@H](NC(=O)NCc2ccccc2)C[C@@H]1c1nc2ccccc2[nH]1 [Example 76, 1-[(2R,4R)-2-(1H-benzimidazol-2-yl)-1-methylpiperidin-4-yl]-3-benzylurea hydrochloride] — higher, 100%
- Cc1cc2nc([C@H]3C[C@H](NC(=O)Nc4ccc(C(F)(F)F)nc4)CCN3C)[nH]c2cc1C [Example 77, 1-[(2R,4R)-2-(5,6-dimethyl-1H-benzimidazol-2-yl)-1-methylpiperidin-4-yl]-3-[6-(trifluoromethyl)pyridin-3-yl]urea hydrochloride] — higher, 100%
- CN1CC[C@@H](NC(=O)Cc2ccc(Cl)s2)C[C@@H]1c1nc2ccccc2[nH]1 [Example 78, N-[(2R,4R)-2-(1H-benzimidazol-2-yl)-1-methylpiperidin-4-yl]-2-(5-chloro-2-thienyl)acetamide hydrochloride] — higher, 99.3%
- CN1CC[C@@H](NC(=O)c2ccc3c(c2)OCCO3)C[C@@H]1c1nc2ccc(C(F)(F)F)cc2[nH]1 [Example 79, N-{(2R,4R)-1-methyl-2-[6-(trifluoromethyl)-1H-benzimidazol-2-yl]piperidin-4-yl}-2,3-dihydro-1,4-benzodioxine-6-carboxamide hydrochloride] — higher, 99.2%
- Cc1ccc(NC(=O)N[C@@H]2CCN(C)[C@@H](c3nc4ccccc4[nH]3)C2)cn1 [Example 81, 1-[(2R,4R)-2-(1H-benzimidazol-2-yl)-1-methylpiperidin-4-yl]-3-(6-methylpyridin-3-yl)urea hydrochloride] — lower, 97.8%
- O=C(N[C@@H]1CCN(C2CCC2)[C@@H](c2nc3ccccc3[nH]2)C1)c1ccc2c(c1)OCCO2 [Example 82, N-[(2R,4R)-2-(1H-benzimidazol-2-yl)-1-cyclobutyl-piperidin-4-yl]-2,3-dihydro-1,4-benzodioxine-6-carboxamide hydrochloride] — lower, 96.8%
